Experimental data taken from PMC12549899 (Nature Communications, 2025).

Assay: Mixing of DMSO master stock into aqueous cryo-EM sample (precipitation)
Type: physicochemical
Conditions: 0.2 µL of 2.17 M DMSO stock into 40 µL DrOTOP1 sample, nominal ≤ 10.85 mM, 0.5% DMSO
Protocol: All protein purification steps were performed at 4 °C, and buffers were chilled on ice until use unless otherwise noted. Cell pellets were thawed in a room-temperature water bath and resuspended in Solubilization Buffer (25 mM Tris pH 8.0, 150 mM NaCl, 1% n-dodecyl-β-d-maltoside (DDM), 0.15% cholesteryl hemisuccinate (CHS), […], 1 mM phenylmethylsulfonyl Fluoride (PMSF), 2 µM pepstatin A and 2 mM dithiothreitol (DTT)) and was stirred for 1 – 3 h for detergent solubilization. The lysate was centrifuged at 40,000 × g and the supernatant was collected. […]. Next, the mixture was flowed over a gravity chromatography column, and flowthrough containing GFP-cleaved DrOTOP1 was collected and concentrated in a 100 kDa cutoff centrifugal concentrator (Amicon® Ultra or Pierce™) that was pre-equilibrated with SEC1 Buffer, to 500 µL volume. […] The resulting peaks were analyzed with sodium dodecyl sulfate-polyacrylamide gel electrophoresis (SDS-PAGE), and fractions corresponding to dimeric DrOTOP1 were pooled. […] The resulting peaks were analyzed with SDS-PAGE, and fractions corresponding to dimeric DrOTOP1 in lipid nanodisc were pooled and concentrated to 2 – 5 mg/mL with a 100 kDa cutoff centrifugal concentrator (Amicon® Ultra or Pierce™). […]

## C=C(C)COc1ccccc1NC(=O)c1nc[nH]c1C [C2.2]
  Solubility in aqueous buffer: visible precipitation formed
